Patent US10576078B2 (Council of Scientific & Industrial Research, priority 2017, dated 2020)

How the values were obtained:
K562 cells [1] = test: Apoptosis by annexin V/PI staining and flow cytometry in K562 cells; format: cell-based, Human; settings: 48 h
Description: K562 cells were treated with CFZ for 48 h and apoptosis was analyzed by annexin V and propidium iodide (PI) staining followed by flow-cytometry (FACSCalibur, BD biosciences). (C) Mean±SEM of three independent experiments are plotted. (D) Representative dot plot.

K562 cells [2] = test: TUNEL assay in K562 cells; format: cell-based, Human; settings: CFZ 5 μM, 48 h
Description: K562 cells were treated with CFZ for 48 h and TUNEL staining was performed followed by fluorescent microscopy. Images are representative of two independent experiments (8 fields per group).

[3] = test system: chronic phase CML patient-derived mononuclear cells (CP-CML cells); test: Apoptosis by annexin V/PI staining in CP-CML cells; format: cell-based, Human; settings: 5 μM, 48 h
Text: FD; freshly diagnosed, Resp; imatinib-responder, Res; imatinib-resistant.
Peripheral blood samples were obtained from chronic phase (CP-CML), accelerated phase (AP) or blast crisis (BC) CML patients (BCR− ABL+ v e freshly diagnosed, Imatinib-resistant or responders), and healthy donors from King George's Medical University (Clinical Hematology and Medical Oncology division), Lucknow, following ethical approval (Approval No: 1638/R. Cell-12) as per institutional ethical guidelines after written consent. Peripheral blood mononuclear cells (PBMC) were isolated on Percoll (Sigma) density gradient by centrifugation. Briefly, the blood was collected in vials coated with trisodium citrate buffer. Cells were then centrifuged 700 g for 10 min and plasma was removed. The pellet was resuspended in 6 ml Hank's balanced salt solution (HBSS; Invitrogen, Thermo Fisher Scientific), and then 2 ml of 6% Dextran in HBSS was added to it. Cells were then incubated at 37° C. for 30 min. The supernatant was then collected and centrifuged at 300 g for 5 min. The pellet was then resuspended in 2 ml HBSS supplemented with 0.18% glucose and loaded onto percoll gradient. PBMCs were then isolated by centrifugation.

[4] = test system: aldehyde dehydrogenase (ALDH) activity in CP-CML cells; test: Aldefluor assay of aldehyde dehydrogenase activity; format: cell-based, Human; settings: imatinib-resistant CP-CML cells, n=6, 5 μM, 48 h
Description: CP-CML cells from imatinib-resistant patients (n=6) were treated with CFZ or salinomycin (5 μM; 48 h) and aldehyde dehydrogenase activity in these cells were assessed using an ALDEFLUOR kit (Stemcell technologies). ***p<0.0001.
CP-CML cells isolated from imatinib-resistant patients were treated with vehicle (V; 0.1% DMSO), CFZ or salinomycin (both 5 μM) for 48 h (FIG. 2C). Aldehyde dehydrogenase activity in CP-CML cells was assessed using an Aldefluor kit ([…] technologies) by flow cytometry (FACSCalibur).

CP-CML cells = test: Megakaryocytic surface markers in CP-CML cells by flow cytometry; format: cell-based, Human; settings: 2.5 μM CFZ, 72 h
Description: FIG. 3D-3E in particular show CFZ induces megakaryocytic surface markers CD61 and CD41 in CP-CML cells. CD61 (D) and CD41 (E) surface expression in CP-CML (gated monocytes) cells after treatment with 2.5 μM CFZ for 72 h were assessed by flowcytometry. *p<0.05, ***p<0.0001.
Differentiation analyses by flow cytometry: K562 (FIG. 3B-C) or primary CP-CML cells (FIG. 3D-E) were treated with vehicle, CFZ and PMA as indicated in the respective figures and figure descriptions for 72 hrs. Cells were then harvested, washed, and centrifuged, resuspended in 100 μl PBS and were stained with CD41-FITC or CD61-PE antibodies for 30 min at room temperature (in dark). After incubation, the cells were washed and resuspended in 300 μl PBS and were analyzed on a FACSCalibur flow cytometer.

[5] = rat, in vivo, po
Text: Sprague-Dawley rats (n=6 per group) were divided into 3 groups. […] Plasma was separated and processed for analysis by LC-MS/MS. For pharmacokinetic and statistical analysis, plasma concentration versus time data were plotted and analyzed by non-compartmental analysis method using WinNonlin (Pharsight, Mountain View, Calif.) software.
For this SD rats (n=6 per group) were divided into 3 groups. […] Plasma was separated and processed for analysis by LC-MS/MS. For pharmacokinetic and statistical analysis, plasma concentration versus time data were plotted and analyzed by non-compartmental analysis method using WinNonlin (Pharsight, Mountain View, Calif.) software.

Structure (SMILES): CC(C)/N=c1\cc2n(-c3ccc(Cl)cc3)c3ccccc3nc-2cc1Nc1ccc(Cl)cc1 [CFZ, Clofazimine]
- apoptosis by Annexin V staining (K562 cells [1]): concentration-dependently induces apoptosis
- apoptosis as determined by TUNEL assay (K562 cells [2]): induces apoptosis
- efficacy of apoptosis induction ([3]; CP-CML cells from freshly diagnosed patients): comparable to imatinib
- efficacy of apoptosis induction ([3]; CP-CML cells from imatinib responders): comparable to imatinib
- efficacy of apoptosis induction versus dasatinib ([3]; CP-CML cells harboring BCR-ABL mutation F359V): higher
- efficacy of apoptosis induction versus dasatinib ([3]; CP-CML cells harboring BCR-ABL mutation M244V): comparable
- efficacy of apoptosis induction versus dasatinib ([3]; CP-CML cells harboring BCR-ABL mutation M351T): higher
- efficacy of apoptosis induction versus dasatinib ([3]; CP-CML cells harboring BCR-ABL mutation Y253H): higher
- efficacy of apoptosis induction ([3]; imatinib-resistant CP-CML cells): higher than imatinib and dasatinib
- aldehyde dehydrogenase (ALDH) activity [4]: remarkably decreased
- megakaryocytic surface marker CD41 (CP-CML cells): increased
- megakaryocytic surface marker CD61 (CP-CML cells): increased
- Tmax in combination group compared to individual groups [5]: no change
- clearance in combination group compared to individual groups [5]: lower
